According to patent US20090176817A1, “Method of Treatment of Diarrhea-Predominant Irritable Bowel Syndrome in a Subject” (priority 2005, published 2009):

System: diarrhea-predominant IBS subjects
Assay: Study S241.3.009: weekly diary questions on adequate relief
Type: in vivo, human
Conditions: for Responder rate, adequate relief of abnormal bowel habits / Responder rate, adequate relief of IBS symptoms / Responder rate, adequate relief of abdominal pain/discomfort: monthly LOCF imputation; for Responder rate, adequate relief of abnormal bowel habits / Overall responder rate, adequate relief of IBS symptoms / Overall responder rate, adequate relief of abdominal pain/discomfort / Overall responder rate, adequate relief of abnormal bowel habits / Number of months a subject was a responder: One month (Abdominal pain/discomfort) / Number of months a subject was a responder: One month (Abnormal bowel habits) / Number of months a subject was a responder: One month (IBS symptoms) / Number of months a subject was a responder: Three months (Abdominal pain/discomfort) / Number of months a subject was a responder: Three months (Abnormal bowel habits) / Number of months a subject was a responder: Three months (IBS symptoms) / Number of months a subject was a responder: Two months (Abdominal pain/discomfort) / Number of months a subject was a responder: Two months (Abnormal bowel habits) / Number of months a subject was a responder: Two months (IBS symptoms) / Number of months a subject was a responder: Zero months (Abdominal pain/discomfort) / Number of months a subject was a responder: Zero months (Abnormal bowel habits) / Number of months a subject was a responder: Zero months (IBS symptoms) / Responder rate, adequate relief of IBS symptoms / Responder rate, adequate relief of abdominal pain/discomfort: ITT, 2 mg TID; for Overall responder rate, adequate relief of IBS symptoms / Overall responder rate, adequate relief of abdominal pain/discomfort / Overall responder rate, adequate relief of abnormal bowel habits: 26-week treatment period, observed case; for Number of months a subject was a responder: One month (Abdominal pain/discomfort) / Number of months a subject was a responder: One month (Abnormal bowel habits) / Number of months a subject was a responder: One month (IBS symptoms) / Number of months a subject was a responder: Three months (Abdominal pain/discomfort) / Number of months a subject was a responder: Three months (Abnormal bowel habits) / Number of months a subject was a responder: Three months (IBS symptoms) / Number of months a subject was a responder: Two months (Abdominal pain/discomfort) / Number of months a subject was a responder: Two months (Abnormal bowel habits) / Number of months a subject was a responder: Two months (IBS symptoms) / Number of months a subject was a responder: Zero months (Abdominal pain/discomfort) / Number of months a subject was a responder: Zero months (Abnormal bowel habits) / Number of months a subject was a responder: Zero months (IBS symptoms): monthly LOCF
Protocol: Study S241.3.009 was a Phase III, a double-blind, placebo-controlled, randomized, multinational study to investigate the safety and efficacy of 2 mg TID of cilansetron over 26 weeks in diarrhea-predominant IBS subjects. The study was conducted in 146 multinational study centers. A total of 1307 subjects consented to participate, and 806 subjects were randomized. A total of 792 subjects were analyzed for efficacy and 799 subjects were analyzed for safety. Diagnosis and main criteria for inclusion were IBS subjects satisfying the Rome I criteria (1992); the diarrhea-predominant sub-population of the Rome II criteria; and a minimum abdominal pain/discomfort, stool frequency and consistency determined during the run-in period. Subjects were treated with cilansetron 2 mg tablets given orally TID or matching placebo tablets given orally TID for 26 weeks.
The primary efficacy parameter was the overall response rate for IBS symptoms, based on the weekly question concerning adequate relief of IBS symptoms (abdominal pain/discomfort, abnormal bowel habits) over the 26 weeks period. A responder was a subject who responded “yes” at least 50% of the time during his/her treatment period, with minimum treatment duration of four weeks. The two main secondary efficacy parameters were overall responder rate based on the weekly question on adequate relief of abdominal pain/discomfort and abnormal bowel habits during the 26-week treatment period. The onset of action of cilansetron was also examined using daily diary data (stool frequency, and ratings of urgency and severity) during the initial 8 weeks of trial participation. An additional key secondary efficacy parameter was the number of months (one month equals four weeks) up to six months (24-weeks) that a subject was a responder for IBS symptoms, where a responder was defined as a subject who answered the weekly question with “yes” at least twice for that month. The responder rate for the weekly diary questions on adequate relief at each month and all months, the adequate relief rate, the number of subjects with adequate relief by week, daily diary questions, IBS-QOL scores, and the interruption of activities were also assessed. Safety was evaluated by physical examination, ECG, vital signs, laboratory evaluations, concomitant medications, and AEs.
Studies S24 1.3.OO6, S24 1.3.0 1 1, and S24 1.3.009 used the following efficacy measurements: • The subjects answered the following three questions with “yes” or “no” using a phone diary at the end of each week: • a) During the last week, did you experience adequate relief of your IBS symptoms, such as abdominal pain, abdominal discomfort, abnormal bowel habits? • b) During the last week, did you experience adequate relief of your abdominal pain and/or discomfort? • c) During the last week, did you experience adequate relief of your abnormal bowel habits? • The subjects rated the following symptoms using the phone diary at the end of each day: • abdominal pain/discomfort (five-point scale); • stool consistency (seven-point Bristol Stool Scale); • stool frequency (number of bowel movements each day); • urgency (five-point scale); • straining (yes or no); • feeling of incomplete defecation (yes or no); • bloating or feeling of abdominal distension (five-point scale). • In Studies S241 A006 and S241.3.009, subjects completed the IBS-QOL Survey at Baseline (Day 1) and at the end of treatment. In Study S24 1.3.0 1 1, subjects completed the IBS-QOL Survey at Baseline (Day 1), at the end of the three-month treatment period, and at the end of rerandomized treatment.
In all three pivotal efficacy studies, the primary and main secondary efficacy parameters were based on the weekly diary questions on adequate relief and included the following: • 1. Number of months (one month equals four weeks) that a subject was a responder for the weekly diary questions on adequate relief. […]

Cc1nccn1C[C@H]1CCc2c(c3cccc4c3n2CCC4)C1=O [Cilansetron, (R)-(−)-4,5,6,8,9,10-hexahydro-10-[(2-methyl-1H-imidazol-1-yl)methyl]-11H-pyrido-[3,2,1-jk]-carbazol-11-one]
Responder rate, adequate relief of abnormal bowel habits (Each month of Months 4 to 6): 204 (52) n (%)
Overall responder rate, adequate relief of IBS symptoms (Female subjects): 132 (63) n (%)
Overall responder rate, adequate relief of abdominal pain/discomfort (Female subjects): 133 (64) n (%)
Overall responder rate, adequate relief of abnormal bowel habits (Female subjects): 141 (67) n (%)
Number of months a subject was a responder: One month (Abdominal pain/discomfort) (Female subjects, Months 1 to 3): 30 (14) n (%)
Number of months a subject was a responder: One month (Abnormal bowel habits) (Female subjects, Months 1 to 3): 25 (12) n (%)
Number of months a subject was a responder: One month (IBS symptoms) (Female subjects, Months 1 to 3): 28 (13) n (%)
Number of months a subject was a responder: Three months (Abdominal pain/discomfort) (Female subjects, Months 1 to 3): 93 (44) n (%)
Number of months a subject was a responder: Three months (Abnormal bowel habits) (Female subjects, Months 1 to 3): 91 (44) n (%)
Number of months a subject was a responder: Three months (IBS symptoms) (Female subjects, Months 1 to 3): 82 (39) n (%)
Number of months a subject was a responder: Two months (Abdominal pain/discomfort) (Female subjects, Months 1 to 3): 36 (17) n (%)
Number of months a subject was a responder: Two months (Abnormal bowel habits) (Female subjects, Months 1 to 3): 49 (23) n (%)
Number of months a subject was a responder: Two months (IBS symptoms) (Female subjects, Months 1 to 3): 47 (22) n (%)
Number of months a subject was a responder: Zero months (Abdominal pain/discomfort) (Female subjects, Months 1 to 3): 50 (24) n (%)
Number of months a subject was a responder: Zero months (Abnormal bowel habits) (Female subjects, Months 1 to 3): 44 (21) n (%)
Number of months a subject was a responder: Zero months (IBS symptoms) (Female subjects, Months 1 to 3): 52 (25) n (%)
Overall responder rate, adequate relief of IBS symptoms (Male subjects): 102 (55) n (%)
Overall responder rate, adequate relief of abdominal pain/discomfort (Male subjects): 106 (57) n (%)
Overall responder rate, adequate relief of abnormal bowel habits (Male subjects): 112 (60) n (%)
Number of months a subject was a responder: One month (Abdominal pain/discomfort) (Male subjects, Months 1 to 3): 31 (17) n (%)
Number of months a subject was a responder: One month (Abnormal bowel habits) (Male subjects, Months 1 to 3): 24 (13) n (%)
Number of months a subject was a responder: One month (IBS symptoms) (Male subjects, Months 1 to 3): 27 (15) n (%)
Number of months a subject was a responder: Three months (Abdominal pain/discomfort) (Male subjects, Months 1 to 3): 66 (35) n (%)
Number of months a subject was a responder: Three months (Abnormal bowel habits) (Male subjects, Months 1 to 3): 74 (40) n (%)
Number of months a subject was a responder: Three months (IBS symptoms) (Male subjects, Months 1 to 3): 68 (37) n (%)
Number of months a subject was a responder: Two months (Abdominal pain/discomfort) (Male subjects, Months 1 to 3): 34 (18) n (%)
Number of months a subject was a responder: Two months (Abnormal bowel habits) (Male subjects, Months 1 to 3): 34 (18) n (%)
Number of months a subject was a responder: Two months (IBS symptoms) (Male subjects, Months 1 to 3): 33 (18) n (%)
Number of months a subject was a responder: Zero months (Abdominal pain/discomfort) (Male subjects, Months 1 to 3): 55 (30) n (%)
Number of months a subject was a responder: Zero months (Abnormal bowel habits) (Male subjects, Months 1 to 3): 54 (29) n (%)
Number of months a subject was a responder: Zero months (IBS symptoms) (Male subjects, Months 1 to 3): 58 (31) n (%)
Responder rate, adequate relief of IBS symptoms (Month 1): 193 (49) n (%)
Responder rate, adequate relief of abdominal pain/discomfort (Month 1): 199 (50) n (%)
Responder rate, adequate relief of abnormal bowel habits (Month 1): 214 (54) n (%)
Responder rate, adequate relief of IBS symptoms (Month 2): 233 (59) n (%)
Responder rate, adequate relief of abdominal pain/discomfort (Month 2): 237 (60) n (%)
Responder rate, adequate relief of abnormal bowel habits (Month 2): 245 (62) n (%)
Responder rate, adequate relief of IBS symptoms (Month 3): 239 (61) n (%)
Responder rate, adequate relief of abdominal pain/discomfort (Month 3): 242 (61) n (%)
Responder rate, adequate relief of abnormal bowel habits (Month 3): 251 (64) n (%)
Responder rate, adequate relief of IBS symptoms (Month 4): 237 (60) n (%)
Responder rate, adequate relief of abdominal pain/discomfort (Month 4): 241 (61) n (%)
Responder rate, adequate relief of abnormal bowel habits (Month 4): 245 (62) n (%)
Responder rate, adequate relief of IBS symptoms (Month 5): 237 (60) n (%)
Responder rate, adequate relief of abdominal pain/discomfort (Month 5): 242 (61) n (%)
Responder rate, adequate relief of abnormal bowel habits (Month 5): 247 (63) n (%)
Responder rate, adequate relief of IBS symptoms (Month 6): 233 (59) n (%)
Responder rate, adequate relief of abdominal pain/discomfort (Month 6): 237 (60) n (%)
Responder rate, adequate relief of abnormal bowel habits (Month 6): 243 (62) n (%)
Median adequate relief rate, IBS symptoms (Months 1 to 3): 0.58
Median adequate relief rate, abdominal pain/discomfort (Months 1 to 3): 0.58
Median adequate relief rate, abnormal bowel habits (Months 1 to 3): 0.67
Overall responder rate, abdominal pain/discomfort (Months 1 to 3): 56%
Overall responder rate, abnormal bowel habits (Months 1 to 3): 62%
Overall responder rate, IBS symptoms (Months 1 to 3, observed case): 55%
Median adequate relief rate, IBS symptoms (Months 1 to 6): 0.64
Median adequate relief rate, abdominal pain/discomfort (Months 1 to 6): 0.63
Median adequate relief rate, abnormal bowel habits (Months 1 to 6): 0.70
Overall responder rate difference vs placebo across diary questions (Romania): −29% to −8
Overall responder rate difference vs placebo, each diary question (South Africa): −23%
